Test results taken from patent US12577231B2, “Androgen receptor PROTACS” (GlaxoSmithKline Intellectual Property Development Limited, priority 2023, dated 2026).

target: T1, Androgen Receptor, LNCaP (AR T878A) (Homo sapiens, UniProt P10275, T878A); assay: Androgen Receptor Degradation-Imaging Assay, LNCaP cell line; assay type: cell-based; details: 16 hours treatment, maximum observed degradation
T1 construct: endogenous in cells; host or cells: LNCaP
T1 sequence (P10275 1-920 T878A): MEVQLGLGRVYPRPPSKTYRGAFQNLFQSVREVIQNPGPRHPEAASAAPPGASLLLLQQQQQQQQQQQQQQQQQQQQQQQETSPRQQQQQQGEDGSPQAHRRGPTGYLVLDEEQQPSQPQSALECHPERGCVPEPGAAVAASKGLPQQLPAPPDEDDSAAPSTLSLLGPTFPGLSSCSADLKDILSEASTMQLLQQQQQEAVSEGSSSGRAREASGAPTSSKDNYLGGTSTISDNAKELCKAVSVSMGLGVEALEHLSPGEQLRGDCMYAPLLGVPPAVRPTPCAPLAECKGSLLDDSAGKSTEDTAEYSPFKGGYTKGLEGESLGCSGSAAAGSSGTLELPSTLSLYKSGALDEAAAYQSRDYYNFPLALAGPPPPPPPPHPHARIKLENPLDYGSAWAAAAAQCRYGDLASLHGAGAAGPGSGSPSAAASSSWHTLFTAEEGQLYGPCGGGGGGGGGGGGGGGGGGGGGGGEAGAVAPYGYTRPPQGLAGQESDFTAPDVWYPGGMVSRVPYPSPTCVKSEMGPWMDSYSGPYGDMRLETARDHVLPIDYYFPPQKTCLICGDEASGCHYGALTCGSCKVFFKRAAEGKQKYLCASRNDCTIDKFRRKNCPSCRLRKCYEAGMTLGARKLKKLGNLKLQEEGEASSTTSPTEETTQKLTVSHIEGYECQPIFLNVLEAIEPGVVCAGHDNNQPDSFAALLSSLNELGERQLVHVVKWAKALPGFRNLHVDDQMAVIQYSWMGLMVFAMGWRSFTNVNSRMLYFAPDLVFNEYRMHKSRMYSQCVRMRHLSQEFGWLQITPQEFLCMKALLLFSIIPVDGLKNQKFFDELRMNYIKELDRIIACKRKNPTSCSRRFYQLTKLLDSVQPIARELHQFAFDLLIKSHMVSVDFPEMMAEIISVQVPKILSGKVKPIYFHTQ
Procedure: Degradation of Androgen Receptor (AR) protein in human prostate cancer cell lines (MDA-PCa-2b (AR T878A/L702H), LNCaP (AR T878A), VCaP (AR wild type and amplified) 22RV1 (AR H875Y) and PC3 (AR negative control)) treated with AR PROTACs was quantified using immunofluorescence. Prostate cancer cells were plated (MDA-PCa-2b, and VCaP 16,000 cells/well; LNCaP and 22RV1 32,000 cells/well, and PC3 8,000 cells/well) in an optical bottom 96-well cell culture plate and allowed to attach overnight. The prostate cancer cell lines were treated for 16 hours with a 10-point 3-fold dilution series (dose range=0.02 nM to 333 nM). PC3 is included as an AR negative control and not treated with compound. Cells are fixed and permeabilized with 4% formaldehyde, blocked with 10% goat serum in immunofluorescence (IF) buffer (130 mM NaCl, 7 mM Na2HPO4, 3.5 mM NaH2PO4, 7.7 mM NaN3, 0.1% BSA, 0.2% Triton X, 0.05% Tween 20) prior to overnight incubation with rabbit antibody specific for C terminus of AR (commercially available from RevMaB Biosciences). Following washes with IF buffer, cells were incubated with fluorescent secondary antibody (Goat anti-rabbit Alexa 647; commercially available from Invitrogen) and Hoechst nuclear stain (commercially available from Themo Scientific) prior to quantification of nuclear AR levels via Opera Phenix high-content fluorescent imager using a 40× water objective. Image analysis was performed with Harmony software.
The averaged nuclear Alexa 647 median fluorescence intensity (MFI) of PC3 cells is subtracted from the nuclear Alexa 647 MFI of PROTAC treated and DMSO control treated cells. % AR remaining is calculated for PROTAC treatments as a percent of the DMSO control (MFI PROTAC treated/MFI DMSO control treated)*100). DC50 and the Dmax values, were obtained from these normalised values fitted with a 4-parameter sigmoidal response curve (Xlfit software). The DC50 is the interpolated concentration of PROTAC corresponding to 50% of the protein being degraded, and the Dmax parameter is the maximum experimentally observed degradation.

Dmax, ≥ 80%:
CC1(C)[C@H](NC(=O)c2ccc(N3CCC(CN4CCC(n5ncc6c(N7CCC(=O)NC7=O)cccc65)CC4)CC3)c(F)c2)C(C)(C)[C@H]1Oc1ccc(C#N)c2ncccc12 [Example 6, N-((1r,3r)-3-((8-Cyanoquinolin-5-yl)oxy)-2,2,4,4-tetramethylcyclobutyl)-4-(4-((4-(4-(2,4-dioxotetrahydropyrimidin-1(2H)-yl)-1H-indazol-1-yl)piperidin-1-yl)methyl)piperidin-1-yl)-3-fluorobenzamide]
CC1(C)[C@H](NC(=O)c2ccc(N3CCC(CN4CCC(n5ncc6c(N7CCC(=O)NC7=O)cccc65)CC4)CC3)c(F)c2)C(C)(C)[C@H]1Oc1ccc(C#N)c2c1CCCO2 [Example 8, N-((1r,3r)-3-((8-Cyanochroman-5-yl)oxy)-2,2,4,4-tetramethylcyclobutyl)-4-(4-((4-(4-(2,4-dioxotetrahydropyrimidin-1(2H)-yl)-1H-indazol-1-yl)piperidin-1-yl)methyl)piperidin-1-yl)-3-fluorobenzamide]
COc1cc(O[C@H]2C(C)(C)[C@H](NC(=O)c3ccc(N4CCC(CN5CCC(n6ncc7c(N8CCC(=O)NC8=O)cccc76)CC5)CC4)cc3)C2(C)C)ccc1C#N [Example 15, N-((1r,3r)-3-(4-Cyano-3-methoxyphenoxy)-2,2,4,4-tetramethylcyclobutyl)-4-(4-((4-(4-(2,4-dioxotetrahydropyrimidin-1(2H)-yl)-1H-indazol-1-yl)piperidin-1-yl)methyl)piperidin-1-yl)benzamide]
COc1cc(O[C@H]2C(C)(C)[C@H](NC(=O)c3ccc(N4CCC(CN5CCC(n6ccc7c(N8CCC(=O)NC8=O)cccc76)CC5)CC4)cc3)C2(C)C)ccc1C#N [Example 16, N-((1r,3r)-3-(4-Cyano-3-methoxyphenoxy)-2,2,4,4-tetramethylcyclobutyl)-4-(4-((4-(4-(2,4-dioxotetrahydropyrimidin-1(2H)-yl)-1H-indol-1-yl)piperidin-1-yl)methyl)piperidin-1-yl)benzamide]
COc1cc(O[C@H]2C(C)(C)[C@H](NC(=O)c3ccc(N4CCC(CN5CCC(n6ncc7c(N8CCC(=O)NC8=O)nccc76)CC5)CC4)c(F)c3)C2(C)C)ccc1C#N [Example 20, N-((1r,3r)-3-(4-Cyano-3-methoxyphenoxy)-2,2,4,4-tetramethylcyclobutyl)-4-(4-((4-(4-(2,4-dioxotetrahydropyrimidin-1(2H)-yl)-1H-pyrazolo[4,3-c]pyridin-1-yl)piperidin-1-yl)methyl)piperidin-1-yl)-3-fluorobenzamide]
CC1(C)[C@H](NC(=O)c2ccc(N3CCC(CN4CCC(n5ccc6c(N7CCC(=O)NC7=O)ncnc65)CC4)CC3)cc2)C(C)(C)[C@H]1Oc1ccc(C#N)c2ncccc12 [Example 28, N-((1r,3r)-3-((8-Cyanoquinolin-5-yl)oxy)-2,2,4,4-tetramethylcyclobutyl)-4-(4-((4-(4-(2,4-dioxotetrahydropyrimidin-1(2H)-yl)-7H-pyrrolo[2,3-d]pyrimidin-7-yl)piperidin-1-yl)methyl)piperidin-1-yl)benzamide]
CC1(C)[C@H](NC(=O)c2cc(F)c(N3CCC(CN4CCC(n5ncc6c(N7CCC(=O)NC7=O)cccc65)CC4)CC3)c(F)c2)C(C)(C)[C@H]1Oc1ccc(C#N)c2ncccc12 [Example 30, N-((1r,3r)-3-((8-Cyanoquinolin-5-yl)oxy)-2,2,4,4-tetramethylcyclobutyl)-4-(4-((4-(4-(2,4-dioxotetrahydropyrimidin-1(2H)-yl)-1H-indazol-1-yl)piperidin-1-yl)methyl)piperidin-1-yl)-3,5-difluorobenzamide]
CC1(C)[C@H](NC(=O)c2ccc(N3CCC(CN4CCC(n5ccc6c(N7CCC(=O)NC7=O)cc(F)cc65)CC4)CC3)c(F)c2)C(C)(C)[C@H]1Oc1ccc(C#N)c2ncccc12 [Example 32, N-((1r,3r)-3-((8-Cyanoquinolin-5-yl)oxy)-2,2,4,4-tetramethylcyclobutyl)-4-(4-((4-(4-(2,4-dioxotetrahydropyrimidin-1(2H)-yl)-6-fluoro-1H-indol-1-yl)piperidin-1-yl)methyl)piperidin-1-yl)-3-fluorobenzamide]
CC1(C)[C@H](NC(=O)c2ccc(N3CCC(CN4CCC(n5ncc6c(N7CCC(=O)NC7=O)nccc65)CC4)CC3)c(F)c2)C(C)(C)[C@H]1Oc1ccc(C#N)c2ncccc12 [Example 39, N-((1r,3r)-3-((8-Cyanoquinolin-5-yl)oxy)-2,2,4,4-tetramethylcyclobutyl)-4-(4-((4-(4-(2,4-dioxotetrahydropyrimidin-1(2H)-yl)-1H-pyrazolo[4,3-c]pyridin-1-yl)piperidin-1-yl)methyl)piperidin-1-yl)-3-fluorobenzamide]
CC1(C)[C@H](NC(=O)c2ccc(N3CCC(CN4CCC(n5ccc6c(N7CCC(=O)NC7=O)ncnc65)CC4)CC3)c(F)c2)C(C)(C)[C@H]1Oc1ccc(C#N)c2ncccc12 [Example 47, N-((1r,3r)-3-((8-Cyanoquinolin-5-yl)oxy)-2,2,4,4-tetramethylcyclobutyl)-4-(4-((4-(4-(2,4-dioxotetrahydropyrimidin-1(2H)-yl)-7H-pyrrolo[2,3-d]pyrimidin-7-yl)piperidin-1-yl)methyl)piperidin-1-yl)-3-fluorobenzamide]
CC1(C)[C@H](NC(=O)c2ccc(N3CCC(O)(CN4CCC(n5ncc6c(N7CCC(=O)NC7=O)cccc65)CC4)CC3)c(F)c2)C(C)(C)[C@H]1Oc1ccc(C#N)c2ncccc12 [Example 48, N-((1r,3r)-3-((8-Cyanoquinolin-5-yl)oxy)-2,2,4,4-tetramethylcyclobutyl)-4-(4-((4-(4-(2,4-dioxotetrahydropyrimidin-1(2H)-yl)-1H-indazol-1-yl)piperidin-1-yl)methyl)-4-hydroxypiperidin-1-yl)-3-fluorobenzamide]
